Measured values: ChEMBL document CHEMBL1949508, “The selective cytotoxic activity in breast cancer cells by an anthranilic alcohol-derived acyclic 5-fluorouracil O,N-acetal is mediated by endoplasmic reticulum stress-induced apoptosis” (Eur J Med Chem, 2012)
pIC50: −log10 of the molar value. Active and inactive are the calls of the source. The calls are words filed in the database; no cut-off is given here.

What was measured:
MCF7 [1] = test: Downregulation of BAG2 gene in human MCF7 cells at 1.09 uM after 48 hrs by microarray hybridization relative to control; assay type: functional
MCF7 [2] = test: Upregulation of BMF gene in human MCF7 cells at 1.09 uM after 48 hrs by microarray hybridization relative to control; assay type: functional
MCF-10A [3] = test: Downregulation of AVEN gene in human MCF10A cells at 37.67 uM after 48 hrs by microarray hybridization relative to control; assay type: functional, cell-based
MCF-10A [4] = test: Downregulation of CD14 gene in human MCF10A cells at 37.67 uM after 48 hrs by microarray hybridization relative to control; assay type: functional, cell-based
MCF7 [5] = test: Upregulation of NOXA gene in human MCF7 cells at 1.09 uM after 48 hrs by microarray hybridization relative to control; assay type: functional
MCF-10A [6] = test: Induction of apoptosis in human MCF10A cells assessed as early apoptotic cells at 37.67 uM after 48 hrs by annexinV-FITC/PI-based flow cytometry (reference value: 0.73 +/- 0.23%); assay type: cell-based
MCF-10A [7] = test: Downregulation of CCL2 gene in human MCF10A cells at 37.67 uM after 48 hrs by microarray hybridization relative to control; assay type: functional, cell-based
MCF7 [8] = test: Upregulation of BBC3 gene in human MCF7 cells at 1.09 uM after 48 hrs by quantitative RT-PCR analysis; assay type: functional, cell-based
MCF-10A [9] = test: Upregulation of BNIP3 gene in human MCF10A cells at 37.67 uM after 48 hrs by microarray hybridization relative to control; assay type: functional, cell-based
MCF7 [10] = test: Upregulation of DNASE1 gene in human MCF7 cells at 1.09 uM after 48 hrs by microarray hybridization relative to control; assay type: functional
MCF-10A [11] = test: Cytotoxicity against human MCF10A cells after 3 days by SRB assay; assay type: cell-based; details: 72 h
MCF-10A [12] = test: Downregulation of CARD9 gene in human MCF10A cells at 37.67 uM after 48 hrs by microarray hybridization relative to control; assay type: functional, cell-based
MCF7 [13] = test: Downregulation of CD14 gene in human MCF7 cells at 1.09 uM after 48 hrs by microarray hybridization relative to control; assay type: functional
MCF-10A [14] = test: Downregulation of BAG2 gene in human MCF10A cells at 37.67 uM after 48 hrs by microarray hybridization relative to control; assay type: functional, cell-based
MCF7 [15] = test: Antiproliferative activity against human MCF7 cells assessed as cell viability at 1.09 uM after […] by SRB assay (reference value: 96.35 +/- 1.32%); assay type: functional; details: read-out: Activity
MCF7 [16] = test: Downregulation of BCL2 gene in human MCF7 cells at 1.09 uM after 48 hrs by microarray hybridization relative to control; assay type: functional
MCF7 [17] = test: Downregulation of FAIM gene in human MCF7 cells at 1.09 uM after 48 hrs by microarray hybridization relative to control; assay type: functional
MCF7 [18] = test: Antiproliferative activity against human MCF7 cells after 3 days by SRB assay; assay type: functional, cell-based; details: MCF7, 72 h
MCF7 [19] = test: Induction of apoptosis in human MCF7 cells assessed as apoptotic cells at 1.09 uM after 48 hrs by annexinV-FITC/PI-based flow cytometry relative to control; assay type: functional
MCF-10A [20] = test: Upregulation of BMF gene in human MCF10A cells at 37.67 uM after 48 hrs by microarray hybridization relative to control; assay type: functional, cell-based
MCF7 [21] = test: Induction of necrosis in human MCF7 cells assessed as necrotic cells at 1.09 uM after 48 hrs by annexinV-FITC/PI-based flow cytometry (reference value: 0.27 +/- 0.01%); assay type: functional
MCF7 [22] = test: Upregulation of BBC3 protein expression in human MCF7 cells at […] after 48 hrs by Western blot analysis relative to control; assay type: functional
MCF-10A [23] = test: Upregulation of CARD14 gene in human MCF10A cells at 37.67 uM after 48 hrs by microarray hybridization relative to control; assay type: functional, cell-based
MCF-10A [24] = test: Downregulation of E2F1 gene in human MCF10A cells at 37.67 uM after 48 hrs by microarray hybridization relative to control; assay type: functional, cell-based
MCF7 [25] = test: Induction of apoptosis in human MCF7 cells assessed as late apoptotic cells at 1.09 uM after 48 hrs by annexinV-FITC/PI-based flow cytometry (reference value: 0.11 +/- 0.02%); assay type: functional
MCF7 [26] = test: Upregulation of NOXA gene in human MCF7 cells at 1.09 uM after 48 hrs by quantitative RT-PCR analysis; assay type: functional, cell-based
MCF7 [27] = test: Upregulation of MTL5 gene in human MCF7 cells at 1.09 uM after 48 hrs by microarray hybridization relative to control; assay type: functional
MCF-10A [28] = test: Upregulation of MTL5 gene in human MCF10A cells at 37.67 uM after 48 hrs by microarray hybridization relative to control; assay type: functional, cell-based
MCF-10A [29] = test: Upregulation of BBC3 gene in human MCF10A cells at 37.67 uM after 48 hrs by microarray hybridization relative to control; assay type: functional, cell-based
MCF-10A [30] = test: Induction of apoptosis in human MCF10A cells assessed as apoptotic cells at 37.67 uM after 48 hrs by annexinV-FITC/PI-based flow cytometry relative to control; assay type: cell-based
MCF-10A [31] = test: Upregulation of GADD45B gene in human MCF10A cells at 37.67 uM after 48 hrs by microarray hybridization relative to control; assay type: functional, cell-based
MCF-10A [32] = test: Upregulation of GADD45A gene in human MCF10A cells at 37.67 uM after 48 hrs by microarray hybridization relative to control; assay type: functional, cell-based

**Q.** For COC(CN(c1ccccc1CO)S(=O)(=O)c1ccccc1N)n1cc(F)c(=O)[nH]c1=O (racemic), which “fold change (FC)” value (MCF7 [1]) is on record?
**A.** -2.32

**Q.** And the “fold change (FC)” value (MCF7 [2])?
**A.** 3

**Q.** And the Activity (MCF-10A [3])?
**A.** inactive

**Q.** What about the Activity (MCF-10A [4]) of the same compound?
**A.** inactive

**Q.** What about the “fold change (FC)” value (MCF7 [5]) of the same compound?
**A.** 2.02

**Q.** What about the Activity (MCF-10A [6]) of the same compound?
**A.** 2.57%

**Q.** And the Activity (MCF-10A [7])?
**A.** inactive

**Q.** And the Activity (MCF7 [8])?
**A.** Active

**Q.** What about the Activity (MCF-10A [9]) of the same compound?
**A.** inactive

**Q.** What about the “fold change (FC)” value (MCF7 [10]) of the same compound?
**A.** 2.07

**Q.** What about the pIC50 (MCF-10A [11]) of the same compound?
**A.** 4.42

**Q.** What about the Activity (MCF-10A [12]) of the same compound?
**A.** inactive

**Q.** What about the “fold change (FC)” value (MCF7 [13]) of the same compound?
**A.** -2.61

**Q.** And the Activity (MCF-10A [14])?
**A.** inactive

**Q.** And the viability at 1.09 µM (MCF7 [15])?
**A.** 6.35%

**Q.** And the “fold change (FC)” value (MCF7 [16])?
**A.** -2.26

**Q.** And the “fold change (FC)” value (MCF7 [17])?
**A.** -3.1

**Q.** What about the pIC50 (MCF7 [18]) of the same compound?
**A.** 5.96

**Q.** And the Activity (MCF7 [19])?
**A.** 90.73%

**Q.** And the Activity (MCF-10A [20])?
**A.** inactive

**Q.** What about the Activity (MCF7 [21]) of the same compound?
**A.** 2.52%

**Q.** And the “fold change (FC)” value (MCF7 [22])?
**A.** 2.74

**Q.** And the Activity (MCF-10A [23])?
**A.** inactive

**Q.** And the Activity (MCF-10A [24])?
**A.** inactive

**Q.** And the Activity (MCF7 [25])?
**A.** 77.4%

**Q.** And the Activity (MCF7 [26])?
**A.** Active

**Q.** What about the “fold change (FC)” value (MCF7 [27]) of the same compound?
**A.** 3.75

**Q.** And the Activity (MCF-10A [28])?
**A.** inactive

**Q.** What about the Activity (MCF-10A [29]) of the same compound?
**A.** inactive

**Q.** What about the Activity (MCF-10A [30]) of the same compound?
**A.** 19.86%

**Q.** What about the Activity (MCF-10A [31]) of the same compound?
**A.** inactive

**Q.** And the Activity (MCF-10A [32])?
**A.** inactive
